Assay results reported in paper PMC2700083, “A covalent peptide inhibitor of RGS4 identified in a focused one-bead, one compound library screen” (BMC Pharmacology, 2009).
Where “and” joins values, the source holds several entries; their conditions need not be identical. Equal entries are not always repeated. Where two headings read alike, the source gives them in different places. Where a SMILES comes first, the peptide text is derived from it. Bridges are numbered along the chain shown (N, C = ends).

How the values were obtained:
RGS19 = biological target: T1, RGS19 (Homo sapiens, UniProt P49795); experiment: FCPIA, Gαo binding to RGS19; details: Figure 2
T1 construct: RGS19ΔC11 (amino acids 1–209); made in house
T1 sequence (P49795 1-209): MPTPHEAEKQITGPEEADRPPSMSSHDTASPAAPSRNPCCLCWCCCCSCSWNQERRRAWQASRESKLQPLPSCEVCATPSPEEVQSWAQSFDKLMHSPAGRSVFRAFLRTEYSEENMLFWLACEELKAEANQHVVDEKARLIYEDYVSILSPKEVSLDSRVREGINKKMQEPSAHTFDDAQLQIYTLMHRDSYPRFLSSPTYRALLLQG
Protocol: We recently described a bead-based screen in which 2.5 × 10^6 different peptide sequences were prepared as a OBOC library. Fluorescently labeled RGS4 was used to probe the library for peptides that bind RGS4 [5]. […] Since the majority of those hit peptides could bind tightly to the RGS without disrupting GAP activity, they were also tested in the flow cytometry protein interaction assay (FCPIA) (Figure 1), which measures the interaction between RGS4 and Gαo. In this method we used a Luminex flow cytometer to detect the binding of Alexa Fluor 532-labeled Gαo to biotinylated RGS4 on avidin beads in the presence of AMF (AlCl3, MgCl2, NaF and GDP) to put the Gα subunit into a transition state-like conformation. Peptides were tested at 50 μM except where limited by solubility (Table 1).
5nd inhibited Gαo binding to a number of different RGS proteins (Figure 2). […] RGS19 and RGS7 are in the RZ and R7 families, respectively and show less inhibition by 5nd. Linear as well as bridged versions of peptide 5 were tested in the FCPIA since cyclization yields would most likely have been less then 100% in the synthesis of the library leaving some linear peptides present on each bead. […] This may be due to lack of structural rigidity necessary for the correct interaction of the peptide with the RGS protein or a role for chemical reactivity of the disulfide.
Figure 2 Characterization of hit 5. […]

RGS4 = biological target: T2, RGS4 (Rattus norvegicus, UniProt P49799); experiment: FCPIA (flow cytometry protein interaction assay), RGS4-Gαo interaction, wild type RGS4 (MBP-RGS4Δ51N); format: binding; details: 100 μM
T2 construct: made in house
T2 sequence (P49799 52-205 limits assumed): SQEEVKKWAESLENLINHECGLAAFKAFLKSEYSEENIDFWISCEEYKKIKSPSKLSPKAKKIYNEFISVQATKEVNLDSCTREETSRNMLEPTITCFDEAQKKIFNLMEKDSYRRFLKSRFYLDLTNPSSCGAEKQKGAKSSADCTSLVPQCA

RGS4 -7C = biological target: T3, RGS4 -7C (Rattus norvegicus, UniProt P49799, C132A/C148A/C183A/C197A/C204A/C71A/C95A); experiment: FCPIA, RGS4 -7C mutant (all 7 cysteines removed); format: binding; details: read-out: 5nd logIC50 (converted)
T3 construct: made in house
T3 sequence (P49799 52-205 C71A/C95A/C132A/C148A/C183A/C197A/C204A): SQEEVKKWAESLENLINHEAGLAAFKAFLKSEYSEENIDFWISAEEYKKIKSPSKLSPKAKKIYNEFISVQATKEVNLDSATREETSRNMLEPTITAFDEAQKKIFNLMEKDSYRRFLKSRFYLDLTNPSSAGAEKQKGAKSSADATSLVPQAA
Protocol: Since 5nd forms an irreversible, DTT-sensitive bond with RGS, it was suspected that it binds covalently to a cysteine in the protein through a disulfide bridge. Indeed, removal of all 7 cysteines (termed the -7C mutant) from RGS4 greatly diminished 5nd activity (logIC50 of -3.24 ± 0.14 for -7C vs. -4.36 ± 0.02 for wild type) (Figure 5, Table 2).
Figure 5 Dose curves of 5nd on various RGS4 cysteine mutants. Various concentrations of 5nd were tested for disruption of the RGS4-Gαo interaction for C95A (5 nM), or […], C71A (5nM) or C148A (5nM) (B), A95C in the -7C (5nM), or A132C in the -7C (5nM) (C), A71C in the -7C (5nM), or A148C in the -7C (5nM) (D) or the mutant with no cysteines in the domain (20 nM) or the C-terminus (20 nM) (E) in the FCPIA (mean ± S.E.M., n ≥ 3).
Proteins were expressed, purified and labeled as described previously. The mutagenesis was done using the "QuickChange Multi Site-Directed Mutagenesis Kit" from Stratagene according to the manufacturer's protocol. The construct of RGS4 used in these studies is a maltose binding protein (MBP-) fusion protein of the RGS4 sequence from which the amphipathic N-terminal helix has been removed (i.e. MBP-RGS4Δ51N). For simplicity in the text, this will be referred to as RGS4. […]

`CC(C)C[C@@H]1NC(=O)CNC(=O)[C@H](CCCCN)NC(=O)[C@@H](NC(=O)[C@H](Cc2c[nH]c3ccccc23)NC(=O)[C@@H](N)Cc2ccc(O)cc2)CSSC[C@@H](C(=O)N[C@@H](CCCCN)C(N)=O)NC1=O` [Peptide 5nd, Tyr-Trp-c [Cys-Lys-Gly-Leu-Cys]-Lys-NH2, S-S] (H-YWCKGLCK-NH2; disulfide 3-7) was tested, and the IC50 (RGS19; read-out: logIC50, RGS19 (converted)) was about 145 µM, the IC50 (RGS19; dose response, read-out: IC50, Gαo binding to RGS19) was 145 µM and ~145 µM and the inhibition at 100 µM (RGS4; beads washed in buffer with 1 mM DTT, read-out: percent inhibition of RGS4-Gαo after DTT wash) was 15 ± 4%. It also gave an inhibition at 100 µM (RGS4; beads washed in buffer without DTT, read-out: percent inhibition of RGS4-Gαo remaining after washing of the beads) of 75 ± 11% and an IC50 (RGS4 -7C) of 575 µM.
